# T1: lysosomal SMase (Homo sapiens, UniProt P17405)
# T1 construct: endogenous in cells; host or cells: cultured human fibroblasts
# T1 sequence (P17405 47-631): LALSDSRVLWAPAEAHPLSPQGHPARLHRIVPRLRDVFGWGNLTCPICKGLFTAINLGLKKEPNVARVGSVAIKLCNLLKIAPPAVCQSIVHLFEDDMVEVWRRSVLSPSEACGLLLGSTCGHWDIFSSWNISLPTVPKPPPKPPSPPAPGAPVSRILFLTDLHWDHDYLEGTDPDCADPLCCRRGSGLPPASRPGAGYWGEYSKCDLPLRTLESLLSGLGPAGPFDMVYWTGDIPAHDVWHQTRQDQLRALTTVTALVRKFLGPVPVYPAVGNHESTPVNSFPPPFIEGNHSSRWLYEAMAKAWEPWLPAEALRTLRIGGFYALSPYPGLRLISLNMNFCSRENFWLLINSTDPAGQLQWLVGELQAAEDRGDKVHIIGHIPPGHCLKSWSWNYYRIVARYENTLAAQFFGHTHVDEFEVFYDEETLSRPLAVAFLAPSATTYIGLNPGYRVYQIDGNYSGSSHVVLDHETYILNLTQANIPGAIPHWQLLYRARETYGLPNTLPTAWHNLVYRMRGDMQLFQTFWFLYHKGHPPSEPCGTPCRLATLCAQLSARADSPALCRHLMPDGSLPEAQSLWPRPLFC
# T2: S-SMase (Mus musculus, UniProt Q04519)
# T2 construct: endogenous in cells; host or cells: J774.A1 macrophages, serum-free conditioned medium
# T2 sequence (Q04519 45-627): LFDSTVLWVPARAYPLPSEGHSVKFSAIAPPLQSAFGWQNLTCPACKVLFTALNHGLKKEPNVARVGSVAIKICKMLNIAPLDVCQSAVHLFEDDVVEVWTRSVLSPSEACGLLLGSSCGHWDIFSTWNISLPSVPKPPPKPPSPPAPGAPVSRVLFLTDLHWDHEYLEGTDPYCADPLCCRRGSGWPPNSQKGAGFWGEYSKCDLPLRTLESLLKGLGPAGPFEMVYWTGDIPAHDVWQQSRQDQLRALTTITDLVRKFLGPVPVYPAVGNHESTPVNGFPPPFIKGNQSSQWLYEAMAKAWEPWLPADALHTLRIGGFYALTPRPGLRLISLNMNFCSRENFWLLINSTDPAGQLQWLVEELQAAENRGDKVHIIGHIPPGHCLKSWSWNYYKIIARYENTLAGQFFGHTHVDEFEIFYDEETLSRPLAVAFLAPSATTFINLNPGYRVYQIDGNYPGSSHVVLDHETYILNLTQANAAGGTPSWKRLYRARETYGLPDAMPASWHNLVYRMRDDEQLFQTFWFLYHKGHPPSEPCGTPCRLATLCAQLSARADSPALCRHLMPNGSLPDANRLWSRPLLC
# T3: L-SMase (Mus musculus, UniProt Q04519)
# T3 construct: endogenous in cells; host or cells: J774.A1 macrophages, sonicated cell homogenate
# T3 sequence (Q04519 45-627): T2 sequence (Q04519 45-627)
# B1: lipoprotein lipase: arterial-wall enzyme (protein, UniProt P06858 28-475, looked up)
# Lipoprotein lipase: ADQRRDFIDIESKFALRTPEDTAEDTCHLIPGVAESVATCHFNHSSKTFMVIHGWTVTGMYESWVPKLVAALYKREPDSNVIVVDWLSRAQEHYPVSAGYTKLVGQDVARFINWMEEEFNYPLDNVHLLGYSLGAHAAGIAGSLTNKKVNRITGLDPAGPNFEYAEAPSRLSPDDADFVDVLHTFTRGSPGRSIGIQKPVGHVDIYPNGGTFQPGCNIGEAIRVIAERGLGDVDQLVKCSHERSIHLFIDSLLNEENPSKAYRCSSKEAFEKGLCLSCRKNRCNNLGYEINKVRAKRSSKMYLKTRSQMPYKVFHYQVKIHFSGTESETHTNQAFEISLYGTVAESENIPFTLPEVSTNKTYSFLIYTEVDIGELLMLKLKWKSDSYFSWSDWWSSPGFAIQKIRVKAGETQKKVIFCSREKVSHLQKGKAPAVFVKCHDKSLNKKSG
# B2: interferon-γ: human recombinant interferon-γ (protein, UniProt P01579 24-161, looked up)
# Interferon gamma: QDPYVKEAENLKKYFNAGHSDVADNGTLFLGILKNWKEESDRKIMQSQIVSFYFKLFKNFKDDQSIQKSVETIKEDMNVKFFNSNKKKRDDFEKLTNYSVTDLNVQRKAIHELIQVMAELSPAAKTGKRKRSQMLFRG
# Key:
# lysosomal SMase = molecular target: T1, lysosomal SMase; experiment: Cellular hydrolysis of [3H]SM-LDL by cultured human fibroblasts; format: cell-based; settings: read-out: inhibition of cellular hydrolysis of [3H]SM-LDL
# Experimental: Second, the ability of chloroquine to work in the aortic strip assay was tested.
# lysosomal hydrolases = experiment: 125I-EGF degradation by aortic strips; set-up: species or system rabbit; settings: 200 μM chloroquine, 3.5 h
# Experimental: Iodination of EGF and assay for ^125I-EGF degradation. Epidermal growth factor (50 μg) was radioiodinated to a specific activity of 5400 counts/min/ng (IODOBEADS®, Pierce Chemical Co., Rockford, Ill.) and was used within 48 h of labeling.
# For this study, ^125I-labeled epidermal growth factor (^125I-EGF) was used, which is known to be internalized by receptor-mediated endocytosis and degraded in lysosomes in many cell types (Goldstein et al., 1985).
# arterial-wall SMase = settings: for hydrolysis of LDL-sphingomyelin by rabbit aorta ex vivo (summary statement): Example 4 restatement
# Experimental: Hydrolysis of [^3H]SM-LDL by strips of rabbit aorta. Aortae were isolated from rabbits fed a high-cholesterol diet for 18 d and incubated ex vivo for 3.5 h at 37° C. with 2 mg [^3H]palmitate-SM-labeled LDL per ml DMEM/0.2% BSA (usually ^18 12 mg total). Material extracted from these strips (Retained) was assayed for [^3H]SM and [^3H]ceramide; approximately 0.1% of the [^3H]SM-LDL (10-20 μg LDL protein) was retained during the 3.5-h incubation period. These [^3H]lipids were also assayed in ^3[H]SM-LDL not exposed to aorta but incubated in extraction buffer (No Aorta) as well as in [^3H]SM-LDL that was not retained by the aortic strips (i.e., still present in the medium after the 3.5-h incubation) and also incubated in extraction buffer (Unretained). For experiments #1 and #2 (FIG. 6A), portions of the aortic strips were preincubated with DMEM/0.2% BSA containing 15 mM EDTA for 30 min, and the 3.5-h incubation was also carried out in the presence of 15 mM EDNA.
# Assay for LDL-SM hydrolysis by strips of rabbit aorta ex vivo. New Zealand white male rabbits (2-3 kg) were fed a chow diet containing 0.2% cholesterol and 10% soybean oil (w/w) for 18 days. The animals were sacrificed, and the thoracic aortae were removed rapidly and placed in a dissection dish with physiological Hank's Trizma maleate buffer (133 mM NaCl, 3.6 mM KCl, 1.0 mM CaCl2, 5.0 mM Trizma maleate, 16 mM dextrose, pH 7.3). The aortae were then further dissected to remove excess fat and any clotted blood and then cut longitudinally and pinned, lumen side up, in a tissue culture dish. The aortic strips were washed several times with DMEM/0.2% BSA and incubated at 37° C. for 3.5 h in DMEM/0.2% BSA containing 2 mg [^3H]SM-labeled LDL per ml. […] When present, these reagents were also added to the corresponding incubation media containing labeled LDL (see legend to FIG. 5). After the 3.5-h incubation of labeled LDL with aortic strips, media were removed (see below), the aortic strips were quickly washed twice in ice-cold PBS, and the center of the strip was cut away from the original cut ends. These center pieces were then minced and extracted in PBS, pH 7.4, containing 6 M guanidine-HCl, 5 mM EDTA, 0.02% sodium azide, 35 μM leupeptin, 1.5 mg aprotinin/ml, and 5 μM pepstatin A for 36 h at 4° C. The extract was centrifuged at 35,000×g for 30 min, and lipids were extracted from the supernate by the method of Bligh and Dyer (Bligh et al., 1959). [^3H]palmitate-SM, ^3 [H]palmitate-ceramide, and free [^3H]palmitate in the lipid extracts were separated by TLC using chloroform:methanol (95:5, v/v) or n-propanol:12.5% ammonium hydroxide (80:20, v/v). […]
# B. cereus SMase = B. cereus SMase (Bacillus cereus, UniProt P11889); settings: 25 mM EDTA present from the start; 50 mU B. cereus SMase/ml, LDL 2 mg/ml, 37° C.
# Experimental: Kinetics of SM hydrolysis and LDL aggregation induced by SMase and the effects of enzymatic inhibition. FIG. 1A: LDL (2 mg/ml) was incubated with 50 mU B. cereus SMase/ml at 37° C. in PES containing 5 nM MgCl2. At the indicated time points, aliquots of the LDL were harvested then assayed for extent of SM hydrolysis (closed triangles) and for aggregation (open squares) FIG. 1B. LDL was incubated in PBS containing 5 mM MgCl2 in the absence of SMase (filled circles), or in the presence of SMase without EDTA (open squares), with 25 mM EDTA present from the start of the incubation (open triangles), or with 25 mM EDTA added after 20 min of incubation (closed triangles) Samples were assayed for turbidity at the indicated timepoints. FIG. 1C, Aliquots from the 180-min timepoint in FIG. 1B were assayed for SM content.
# Careful analysis of the time course of B. cereus SMase-induced LDL aggregation and LDL-SM hydrolysis was done. […] These kinetics are consistent with two possible mechanisms: a slow structural action of SMase, or a rapid enzymatic action that alters the particles so that they then slowly aggregate. To distinguish between these possibilities, EDTA was used to inhibit the enzymatic activity of the bacterial B. cereus SMase, which is a Mg^2+-dependent enzyme (Ikezawa et al., 1986).
# S-SMase = molecular target: T2, S-SMase; experiment: SMase assay of conditioned medium from J774 macrophages (SM micelles, pH 5.0); format: biochemical; settings: treatment with EDTA alone
# Experimental: FIGS. 14A-B. Sequential chelation and addition of Zn^2+ to secreted and intracellular SMase. Serum-free conditioned medium and a cell homogenate from J774 macrophages were prepared as described in “Experimental Procedures”. FIG. 14A, conditioned medium (CM) was assayed for SMase activity using 250 nM [^3H]sphingomyelin in Triton X-100 micelles in the presence of either 5 mM EDTA (first bar) or 0.1 mM ZnCl2 (second bar) for 1 h at 37° C. at pH 5.0. An aliquot of the Zn-activated conditioned medium was then incubated for 18 h in the presence of 10 mM EDTA, 10 mM 1,10-phenanthroline, and 0.6% Triton X-100 at 4° C. (EDTA PHNANTH) and then assayed for SMase activity (third bar). After chelation, a portion of this partially inactivated conditioned medium was then dialyzed against zinc-containing buffer C (150 mM NaCl, 10 mM Tris-HCl, 1 mM ZnCl2, 0.6% Triton X-100, pH 7.4) for 18 h and then assayed for SMase activity (fourth bar). FIG. 14B, an aliquot of cell homogenate (Cell Homgn) was assayed for SMase activity in the presence of assay buffer alone (first bar), 5 mM EDTA (second bar), or 0.1 mM ZnCl2 (third bar). Another aliquot of cell homogenate was incubated for 8 h in the presence of 10 mM EDTA, 10 mm 1,10-phenanthroline, and 0.6% Triton X-100 (EDTA PHNANTH) at 4° C. and then assayed for SMase activity (fourth bar). An aliquot of this chelator-treated cell homogenate was then dialyzed against zinc-containing buffer C for 18 h and then assayed for SMase activity (fifth bar).
# (§1) SMase Assay—As previously described (Schissel et al., 1996), the standard 200-μl assay mixture consisted of up to 40 μl of sample (conditioned media or homogenized cells; see above) and a volume of assay buffer (0.1 M sodium acetate, pH 5.0) to bring the volume to 160 μl. […] The ceramide spots were scraped and directly counted to quantify [^3H]ceramide. Typically, the assay reactions contained approximately 20 μg of cellular homogenate protein and a volume of conditioned media derived from a quantity of cells equivalent to approximately 50 μg of cellular protein.
# L-SMase = molecular target: T3, L-SMase; experiment: SMase assay of cell homogenate from J774 macrophages (SM micelles, pH 5.0); format: biochemical; settings: 5 mM EDTA in assay
# Experimental: FIGS. 14A-B. Sequential chelation and addition of Zn^2+ to secreted and intracellular SMase. Serum-free conditioned medium and a cell homogenate from J774 macrophages were prepared as described in “Experimental Procedures”. FIG. 14A, conditioned medium (CM) was assayed for SMase activity using 250 nM [^3H]sphingomyelin in Triton X-100 micelles in the presence of either 5 mM EDTA (first bar) or 0.1 mM ZnCl2 (second bar) for 1 h at 37° C. at pH 5.0. An aliquot of the Zn-activated conditioned medium was then incubated for 18 h in the presence of 10 mM EDTA, 10 mM 1,10-phenanthroline, and 0.6% Triton X-100 at 4° C. (EDTA PHNANTH) and then assayed for SMase activity (third bar). […]
# as §1
# EC matrix = experiment: 125I-S-SMase binding to matrix derived from cultured cells; settings: in presence of lipoprotein lipase
# Source text: In vitro, Smase causes lipoprotein aggregation, which is a key feature of atheromata and an inducer of foam cells. […] We have identified S-Mase (JBC 271:18431) as a candidate for this arterial Smase, owing to its secretion by endothelial cells (ECs) and macrophages and for its ability to hydrolzye atherogenic lipoproteins (JBC 273:2738 & 4081). We addressed two questions critical to the role of S-SMase in atherogenesis: is S-SMase present in lesions and does S-SMase bind matrix after secretion? Using two different anti-SMase antibodies, Smase staining was prominent in the endothelium of normal rabbit and mouse aorta. In atherosclerotic aorta from cholesterol-fed rabbits and apoE knockout mice and in human coronary lesions, there was very heavy Smase staining throughout the entire intima (endothelium and foam cells). In both normal and lesional aorta, there was staining of the mdia but far less than in the intima. […] To explore this point in vitro, ^125I-S-SMase was incubated with matrix derived from cultured smooth muscle or Ecs. With both, the moles of bound ^125I-S-SMase were≧bound ^125I-LDL, which is known to associate with matrix in vitro and in vivo. […] In summary, Smase, an enzyme implicated in atherogenesis, is present in normal endothelium and especially lesional intima, and there is evidence that S-Mase binds matrix both in vivo and in vitro.
# L-SMase of HUVECs = experiment: Cytokine regulation of L-SMase activity in HUVEC cell homogenates; format: cell-based, human; settings: cytokine-treated endothelial cells
# Experimental: FIGS. 23A-B. Cytokine regulation of S- and L-SMase of HUVECs. […] Conditioned media (FIG. 23A) and cell homogenates (FIG. 23B) from these cells were then assayed for SMase activity in the presence or absence of 0.1 mM ZnCl2, respectively.
# Cells—Primary cultures of HUVEC were obtained from fresh umbilical cords and maintained in cell culture as previously described (31). Human coronary artery endothelial cells from a donor were purchased from Clonetics Corp. (San Diego, Calif.; cat. # CC-2585, Strain #3033). The cells were grown in endothelial basal media (EBM) (Clonetics) supplemented with 10% HI-FES; 10 μg endothelial cell growth supplement/ml (Sigma; cat. # E0760) and 50 μg gentamicin/ml. Primary cultures of bovine aortic endothelial, cells were established and subcultured as described previously (32). […]
# [1] = test system: S-SMase secretion by HUVECs; experiment: Cytokine regulation of S-SMase secretion by HUVECs (SMase activity in conditioned media); format: cell-based, human; settings: 18 h, IL-1β 5 ng/ml, interferon-γ 1000 units/ml
# Experimental: The cells were then washed 3 times with PBS and incubated for 24 h in 1 ml fresh serum-free media containing 0.2%6 BSA. This 24-h conditioned medium was collected for SMase assays.
# Harvesting of Cells and Conditioned Media—Following the incubations described above and in the figure legends, cells were placed on ice and the serum-free conditioned media was removed. The cells were washed two times with ice-cold 0.25 M sucrose and scraped into 0.3 ml and 3.0 ml of this sucrose solution per 35-mm and 100-mm dishes, respectively. Unless indicated otherwise, the scraped cells were disrupted by sonication on ice using three 5-second bursts (Branson 450 Sonifier), and the cellular homogenates were assayed for total protein by the method of Lowry et al. (22) and for SMase activity as described below. The conditioned media were spun at 800×g for 5 min to pellet any contaminating cells and concentrated six-fold using a Centriprep 30 (Amicon; Beverly, Mass.) concentrator (molecular weight cut off=30,000).
# Typically, our assay reactions contained approximately 20 μg of cellular homogenate protein and a volume of conditioned media derived from a quantity of cells equivalent to approximately 50 μg of cellular protein.
# Chain of B. cereus SMase (P11889 28-333): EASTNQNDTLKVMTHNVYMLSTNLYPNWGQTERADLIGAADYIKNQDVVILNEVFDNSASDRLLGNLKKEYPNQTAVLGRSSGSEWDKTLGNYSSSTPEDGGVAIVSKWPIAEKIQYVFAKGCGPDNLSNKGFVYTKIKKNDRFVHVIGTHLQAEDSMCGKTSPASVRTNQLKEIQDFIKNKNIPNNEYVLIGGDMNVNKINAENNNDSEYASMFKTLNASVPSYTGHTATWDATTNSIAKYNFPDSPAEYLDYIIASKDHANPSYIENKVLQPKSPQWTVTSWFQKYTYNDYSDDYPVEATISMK
molecule,measurement,setting,value
CCN(CC)CCCC(C)Nc1ccnc2cc(Cl)ccc12 (stereo not shown) [chloroquine],inhibition at 50 µM,lysosomal SMase,73%
same,block of degradation of 125I-EGF,lysosomal hydrolases,50%
same,inhibition of [3H]ceramide enrichment of retained material,"arterial-wall SMase; 200 μM chloroquine, 30 min preincubation and 3.5-h incubation",no substantial inhibition
same,hydrolysis of LDL-sphingomyelin by rabbit aorta ex vivo (summary statement),arterial-wall SMase,not inhibited
O=C(O)CN(CCN(CC(=O)O)CC(=O)O)CC(=O)O [EDTA],inhibition of LDL aggregation (turbidity),B. cereus SMase,complete inhibition
same,inhibition of LDL-SM hydrolysis,B. cereus SMase,complete inhibition
same,effect on S-SMase enzyme activity,S-SMase,did not affect enzyme activity
same,decrease in generation of ceramide in extracted (retained) material,"arterial-wall SMase; 15 mM EDTA, 30 min preincubation and 3.5-h incubation with [3H]SM-LDL",approximately 50%
same,hydrolysis of LDL-sphingomyelin by rabbit aorta ex vivo (summary statement),arterial-wall SMase,inhibited
same,inhibition of L-SMase in cell homogenates,L-SMase,not inhibited
B1,S-SMase binding to matrix,EC matrix,enhanced
B2,L-SMase (lysosomal SMase) activity,L-SMase of HUVECs,decreased
same,increase of S-SMase activity / secretion (conditioned media),[1],~3 fold
